Experimental data published in PubChem BioAssay (NCI).
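Compound exposure: 48 hours, 5 concentrations, 96-well plates. At the GI50, growth is halved. TGI marks complete inhibition of growth.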

Key:
Assay in all cases: NCI anticancer screen, dose series, 48 h
[1] = system: MCF7 breast
[2] = system: KM12 colon
[3] = system: HS 578T breast
[4] = system: HCT-15 colon
[5] = system: SK-MEL-5 melanoma
[6] = system: M14 melanoma
[7] = system: MDA-MB-231 breast
[8] = system: HT29 colon
[9] = system: NCI-H460 lung
[10] = system: SK-MEL-2 melanoma
[11] = system: NCI-H226 lung
[12] = system: OVCAR-4 ovarian
[13] = system: HL-60(TB) leukemia
[14] = system: U251 CNS
[15] = system: SF-295 CNS
[16] = system: A549 NSCLC
[17] = system: RXF 393 renal
[18] = system: OVCAR-8 ovarian
[19] = system: DU-145 prostate
[20] = system: HOP-92 NSCLC
[21] = system: EKVX NSCLC
[22] = system: OVCAR-3 ovarian
[23] = system: SF-268 CNS
[24] = system: SK-OV-3 ovarian
[25] = system: SF-539 CNS
[26] = system: COLO 205 colon
[27] = system: UACC-62 melanoma
[28] = system: UO-31 renal
[29] = system: NCI/ADR-RES ovarian
[30] = system: NCI-H522 lung
[31] = system: SN12C renal
[32] = system: A498 renal
[33] = system: HOP-62 NSCLC
[34] = system: MDA-MB-435
[35] = system: ACHN renal
[36] = system: PC-3 prostate
[37] = system: UACC-257 melanoma
[38] = system: MOLT-4 leukemia
[39] = system: TK-10 renal
[40] = system: 786-0 renal
[41] = system: SW-620 colon
[42] = system: IGROV1 ovarian
[43] = system: HCT-116 colon
[44] = system: HCC-2998 colon
[45] = system: SNB-75 CNS
[46] = system: MALME-3M melanoma
[47] = system: CCRF-CEM leukemia
[48] = system: BT-549 breast
[49] = system: K-562 leukemia
[50] = system: SNB-19 CNS
[51] = system: CAKI-1 renal
[52] = system: OVCAR-5 ovarian
[53] = system: LOX IMVI melanoma
[54] = system: T-47D breast
[55] = system: SK-MEL-28 melanoma
[56] = system: RPMI-8226 leukemia
[57] = system: NCI-H23 lung
[58] = system: SR leukemia

SMILES: COc1cc2c3c(n(CCN4CCOCC4)c(=O)c2cc1OC)-c1ccccc1C3=O
- GI50 [1]: 37.8 µM
- TGI [1]: > 100 µM
- GI50 [2]: > 100 µM
- TGI [2]: > 100 µM
- GI50 [3]: > 100 µM
- TGI [3]: > 100 µM
- GI50 [4]: > 100 µM
- TGI [4]: > 100 µM
- GI50 [5]: > 100 µM
- TGI [5]: > 100 µM
- GI50 [6]: > 100 µM
- TGI [6]: > 100 µM
- GI50 [7]: > 100 µM
- TGI [7]: > 100 µM
- GI50 [8]: > 100 µM
- TGI [8]: > 100 µM
- GI50 [9]: 45.1 µM
- TGI [9]: > 100 µM
- GI50 [10]: > 100 µM
- TGI [10]: > 100 µM
- GI50 [11]: > 100 µM
- TGI [11]: > 100 µM
- GI50 [12]: > 100 µM
- TGI [12]: > 100 µM
- GI50 [13]: 35.7 µM
- TGI [13]: > 100 µM
- GI50 [14]: 62.3 µM
- TGI [14]: > 100 µM
- GI50 [15]: 34.6 µM
- TGI [15]: > 100 µM
- GI50 [16]: > 100 µM
- TGI [16]: > 100 µM
- GI50 [17]: > 100 µM
- TGI [17]: > 100 µM
- GI50 [18]: > 100 µM
- TGI [18]: > 100 µM
- GI50 [19]: > 100 µM
- TGI [19]: > 100 µM
- GI50 [20]: > 100 µM
- TGI [20]: > 100 µM
- GI50 [21]: > 100 µM
- TGI [21]: > 100 µM
- GI50 [22]: > 100 µM
- TGI [22]: > 100 µM
- GI50 [23]: > 100 µM
- TGI [23]: > 100 µM
- GI50 [24]: 90.4 µM
- TGI [24]: > 100 µM
- GI50 [25]: > 100 µM
- TGI [25]: > 100 µM
- GI50 [26]: > 100 µM
- TGI [26]: > 100 µM
- GI50 [27]: 56.8 µM
- TGI [27]: > 100 µM
- GI50 [28]: 63.3 µM
- TGI [28]: > 100 µM
- GI50 [29]: > 100 µM
- TGI [29]: > 100 µM
- GI50 [30]: 21.2 µM
- TGI [30]: > 100 µM
- GI50 [31]: > 100 µM
- TGI [31]: > 100 µM
- GI50 [32]: 85.7 µM
- TGI [32]: > 100 µM
- GI50 [33]: 89.4 µM
- TGI [33]: > 100 µM
- GI50 [34]: > 100 µM
- TGI [34]: > 100 µM
- GI50 [35]: 35 µM
- TGI [35]: > 100 µM
- GI50 [36]: > 100 µM
- TGI [36]: > 100 µM
- GI50 [37]: > 100 µM
- TGI [37]: > 100 µM
- GI50 [38]: 55.5 µM
- TGI [38]: > 100 µM
- GI50 [39]: > 100 µM
- TGI [39]: > 100 µM
- GI50 [40]: 88.9 µM
- TGI [40]: > 100 µM
- GI50 [41]: 89.2 µM
- TGI [41]: > 100 µM
- GI50 [42]: 17.2 µM
- TGI [42]: > 100 µM
- GI50 [43]: 59.7 µM
- TGI [43]: > 100 µM
- GI50 [44]: 33.8 µM
- TGI [44]: > 100 µM
- GI50 [45]: > 100 µM
- TGI [45]: > 100 µM
- GI50 [46]: > 100 µM
- TGI [46]: > 100 µM
- GI50 [47]: 19.7 µM
- TGI [47]: > 100 µM
- GI50 [48]: > 100 µM
- TGI [48]: > 100 µM
- GI50 [49]: 99.3 µM
- TGI [49]: > 100 µM
- GI50 [50]: > 100 µM
- TGI [50]: > 100 µM
- GI50 [51]: 32.9 µM
- TGI [51]: 72.9 µM
- GI50 [52]: > 100 µM
- TGI [52]: > 100 µM
- GI50 [53]: 45.5 µM
- TGI [53]: > 100 µM
- GI50 [54]: 27.4 µM
- TGI [54]: 88 µM
- GI50 [55]: > 100 µM
- TGI [55]: > 100 µM
- GI50 [56]: 81 µM
- TGI [56]: > 100 µM

SMILES: Cc1ccnc2c(NC(C)CCCN)cc(O)c(O)c12 (centres undefined)
- GI50 [1]: 1.97 µM
- TGI [1]: 5.9 µM
- GI50 [2]: 31.5 µM
- TGI [2]: > 100 µM
- GI50 [57]: 3.98 µM
- TGI [57]: 27.3 µM
- GI50 [58]: 29.3 µM
- TGI [58]: 90.3 µM
- GI50 [3]: 6.26 µM
- TGI [3]: 43.1 µM
- GI50 [4]: 27 µM
- TGI [4]: > 100 µM
- GI50 [5]: 17.6 µM
- TGI [5]: 42.1 µM
- GI50 [6]: 29.7 µM
- TGI [6]: > 100 µM
- GI50 [7]: 16 µM
- TGI [7]: 74 µM
- GI50 [8]: 8.07 µM
- TGI [8]: 51.8 µM
- GI50 [9]: 27.4 µM
- TGI [9]: > 100 µM
- GI50 [10]: > 100 µM
- TGI [10]: > 100 µM
- GI50 [11]: 27.7 µM
- TGI [11]: > 100 µM
- GI50 [12]: 3.11 µM
- TGI [12]: 10.1 µM
- GI50 [13]: 2.12 µM
- TGI [13]: 5.33 µM
- GI50 [14]: 9.43 µM
- TGI [14]: 22.8 µM
- GI50 [15]: 35.2 µM
- TGI [15]: > 100 µM
- GI50 [16]: 20.7 µM
- TGI [16]: 75 µM
- GI50 [17]: 32.3 µM
- TGI [17]: > 100 µM
- GI50 [18]: 6.62 µM
- TGI [18]: 82.6 µM
- GI50 [19]: 11.2 µM
- TGI [19]: 24.2 µM
- GI50 [21]: 21.3 µM
- TGI [21]: 61.8 µM
- GI50 [22]: 2.45 µM
- TGI [22]: 7.24 µM
- GI50 [23]: 21.2 µM
- TGI [23]: 74.2 µM
- GI50 [24]: 39.3 µM
- TGI [24]: > 100 µM
- GI50 [25]: 18.5 µM
- TGI [25]: 41.9 µM
- GI50 [26]: 5.15 µM
- TGI [26]: 23.9 µM
- GI50 [27]: 32.3 µM
- TGI [27]: > 100 µM
- GI50 [28]: 61.9 µM
- TGI [28]: > 100 µM
- GI50 [29]: 16.3 µM
- TGI [29]: > 100 µM
- GI50 [30]: 2.14 µM
- TGI [30]: 9.44 µM
- GI50 [31]: 2.86 µM
- TGI [31]: 13 µM
- GI50 [32]: 33.4 µM
- TGI [32]: > 100 µM
- GI50 [33]: 26.1 µM
- TGI [33]: > 100 µM
- GI50 [34]: 22.3 µM
- TGI [34]: 50.6 µM
- GI50 [35]: > 100 µM
- TGI [35]: > 100 µM
- GI50 [36]: 17.1 µM
- TGI [36]: 53.8 µM
- GI50 [37]: 22.3 µM
- TGI [37]: 55.5 µM
- GI50 [38]: 6.61 µM
- TGI [38]: 34.5 µM
- GI50 [39]: 47.7 µM
- TGI [39]: > 100 µM
- GI50 [40]: 71.2 µM
- TGI [40]: > 100 µM
- GI50 [41]: 19.6 µM
- TGI [41]: 78.7 µM
- GI50 [42]: 12.5 µM
- TGI [42]: 32.9 µM
- GI50 [43]: 13.8 µM
- TGI [43]: > 100 µM
- GI50 [44]: 7.83 µM
- TGI [44]: 32 µM
- GI50 [45]: 19 µM
- TGI [45]: 81.1 µM
- GI50 [46]: 19.4 µM
- TGI [46]: 52.9 µM
- GI50 [47]: 4.62 µM
- TGI [47]: 29.3 µM
- GI50 [48]: 36.1 µM
- TGI [48]: > 100 µM
- GI50 [49]: 26.1 µM
- TGI [49]: > 100 µM
- GI50 [51]: 38.7 µM
- TGI [51]: > 100 µM
- GI50 [52]: 13.1 µM
- TGI [52]: 40.7 µM
- GI50 [53]: 9.69 µM
- TGI [53]: 74.9 µM
- GI50 [54]: 11.6 µM
- TGI [54]: 43.7 µM
- GI50 [55]: 62.5 µM
- TGI [55]: > 100 µM
- GI50 [56]: 11 µM
- TGI [56]: 76.6 µM
